Consider seven molecules from patent publication US5039684A, “Tetrazole amide derivatives of heterocyclic alkenyl acid and their use as antiallergic substances” (Valeas S. p. A., priority 1989, dated 1991).

Data set [1] deals with passive cutaneous anaphylaxis. Nature of the data set: PCA test on the rat, intravenous administration just before challenge with antigen. The format is in vivo, rat (male Sprague Dawley). To be noted: Rattus norvegicus, iv; for ED50: read-out: ED50 (conf. lim) P = 0.05. The method, then: (§1) The serum, obtained from rats actively sensitized with ovalbumin (antigen) and suitably diluted, was injected intradermically into the shaven back of male Sprague Dawley rats (2 wheals per rat).
(§2) The rats were treated intravenously after 24 hours with a solution of ovalbumin and Evans blue. Thirty minutes later they were killed and the diameter and intensity of the blue ring formed at the site of the intradermic injection were measured.
(§3) For each treated group (5 per group) the % inhibition was then calculated with respect to the control group.
The pharmacological screening was effected by administering the compounds of the present invention intravenously and orally.
(§4) For intravenous administration (2 ml/kg), those compounds in which R1 =H (see formula I) were dissolved in an aqueous 1% NaHCO3 solution whereas for oral administration (4 ml/Kg) they were either suspended in 0.5% carboxymethylcellulose or dissolved in an aqueous 3% NaHCO3 solution.

Data set [2] has as its system passive cutaneous anaphylaxis. The experiment in a line: PCA test on the rat, oral administration before challenge with antigen. Conditions: for inhibition in vivo at 3 mg/kg / inhibition in vivo at 10 mg/kg / inhibition in vivo at 30 mg/kg: read-out: inhibition (%); for ED50: 5 min, Table 2, oral administration, read-out: ED50 (conf. lim) P = 0.05; for ED50 OS/ED50 iv: oral 5 minutes before challenge / i.v. immediately before challenge. It counts as in vivo, rat (male Sprague Dawley). The method, then:
The serum, obtained from rats actively sensitized with ovalbumin (antigen) and suitably diluted, was injected intradermically into the shaven back of male Sprague Dawley rats (2 wheals per rat). The rats were treated intravenously after 24 hours with a solution of ovalbumin and Evans blue. Thirty minutes later they were killed and the diameter and intensity of the blue ring formed at the site of the intradermic injection were measured. […] The pharmacological screening was effected by administering the compounds of the present invention intravenously and orally. For intravenous administration (2 ml/kg), those compounds in which R1 =H (see formula I) were dissolved in an aqueous 1% NaHCO3 solution whereas for oral administration (4 ml/Kg) they were either suspended in 0.5% carboxymethylcellulose or dissolved in an aqueous 3% NaHCO3 solution.

In data set [3] the test system is passive cutaneous anaphylaxis. Nature of the data set: PCA test on the rat, time response curve after oral administration. The format is in vivo, rat (male Sprague Dawley). Conditions: Rattus norvegicus; for inhibition in vivo at 30 mg/kg: read-out: inhibition %; for inhibition in vivo at 1 mg/kg: 1 mg/kg/os; for inhibition in vivo at 10 mg/kg: 10 mg/kg/os. Here is the method: as §1, §2, §3, §4

Data set [4] in a line: Acute toxicity in the mouse, oral administration. Conditions: mouse, in vivo, po, 1000 mg/kg, oral, 1000 mg/kg/os; read-out: mortality (%EAD). The format is in vivo. The method, then: (§5) Acute toxicity was evaluated in the mouse by administering the compounds orally at scalar doses to a maximum of 1000 mg/kg to evaluate the 50% lethal dose (LD50). The compounds were administered in carboxymethylcellulose (0.5%) in a volume of […] to male mice (Swiss stock) of average weight 20 g.

Data set [5] deals with mouse. The experiment in a line: Acute toxicity in the mouse, oral administration. The format is in vivo. The method, then: as §5
[6] abbreviates: 1 mg/kg, immediately before challenge, read-out: inhibition (%).
The mark [7] stands for this setting: Rattus norvegicus, po, 3 mg/kg, 5 minutes before challenge.
[8] abbreviates: Rattus norvegicus, po, 10 mg/kg, 5 minutes before challenge.
Setting [9] is: Rattus norvegicus, po, 30 mg/kg, 5 minutes before challenge.
The mark [10] stands for this setting: 5 min, oral, 30 mg/kg/os, 5 minutes before challenge.
Setting [11] is: 0.25 h, oral, 30 mg/kg/os, 15 minutes before challenge.
Where [12] appears, read: 0.5 h, oral, 30 mg/kg/os, 30 minutes before challenge.
Setting [13] is: 1 h, oral, 30 mg/kg/os, 60 minutes before challenge.
[14] abbreviates: 2 h, oral, 30 mg/kg/os, 120 minutes before challenge.
Setting [15] is: Rattus norvegicus, po, 5 minutes before challenge.
The mark [16] stands for this setting: 5 min, oral, 5 minutes before challenge.
Where [17] appears, read: 0.25 h, oral, 15 minutes before challenge.
[18] abbreviates: 0.5 h, oral, 30 minutes before challenge.
The mark [19] stands for this setting: 1 h, oral, 60 minutes before challenge.
[20] abbreviates: 2 h, oral, 120 minutes before challenge.
Where [21] appears, read: 0.3 mg/kg, immediately before challenge, read-out: inhibition (%).

With `O=C(/C=C/c1ccc(Br)s1)Nc1nn[nH]n1` [VAL 47-008, N-1H-tetrazol-5-yl-[3-[5-bromo-(2-thienyl)]]-acrylamide trans isomer], the inhibition in vivo at 1 mg/kg in data set [1] (setting [6]) amounted to 0%. The results for the inhibition in vivo at 3 mg/kg in data set [1] (immediately before challenge) and in data set [2] (setting [7]) were 8.6% and 32.5%, respectively. For the same molecule, the inhibition in vivo at 10 mg/kg in data set [1] (immediately before challenge) was determined as 31.9%; in data set [2] (setting [8]), 26.9%. Further, the inhibition in vivo at 30 mg/kg came to 82.3% in data set [1] (30 mg/kg, immediately before challenge); 43.7% in data set [2] (setting [9]); 37.7% in data set [3] (setting [10]); 16% in data set [3] (setting [11]); 10.9% in data set [3] (setting [12]); 3.4% in data set [3] (setting [13]). In addition, the inhibition in vivo at 30 mg/kg in data set [3] (setting [14]) was determined as 2.3%. The ED50 (commonly the dose that gives a 50% effect, or the effect in half of the subjects) in data set [1] (immediately before challenge) is 12.8 mg/kg. Moreover, in data set [4], the mortality (usually the percentage killed) was determined as 0%. Moreover, in data set [5] (oral, 1000 mg/kg/os, 8 treated), the “No. (dead)” value is 0.
For `Cc1ccc(/C=C/C(=O)Nc2nn[nH]n2)o1` [VAL 47-073, N-1H-tetrazol-5-yl-[3-[5-methyl-(2-furyl)]]-acrylamide trans isomer], the inhibition in vivo at 1 mg/kg in data set [1] (setting [6]) stood at 3.4%; in data set [2] (setting [15]) it was 44%; in data set [3] (setting [16]) it was 52.6%; in data set [3] (setting [17]) it was 7.8%; in data set [3] (setting [18]) it was 19.8%; in data set [3] (setting [19]), 0%. This molecule also came in with an inhibition in vivo at 1 mg/kg in data set [3] (setting [20]) of 0%. Also, the figures for the inhibition in vivo at 3 mg/kg in data set [1] (immediately before challenge) and in data set [2] (setting [7]) were 50.7% and 87.5%, respectively. In addition, the inhibition in vivo at 10 mg/kg in data set [1] (immediately before challenge) was found to be 95.1%; in data set [2] (setting [8]), 89.3%. Moreover, the ED50 was 3.13 mg/kg in data set [1] (immediately before challenge) and 0.92 mg/kg in data set [2] (setting [15]). The molecule further gave an inhibition in vivo at 0.3 mg/kg in data set [2] (Rattus norvegicus, po, 0.3 mg/kg, 5 minutes before challenge) of 22%. In addition, in data set [2], the “ED50 OS/ED50 iv” value was 0.29. In data set [4], the mortality amounted to 0%. In addition, the “No. (dead)” value in data set [5] (mouse, in vivo, po, 1000 mg/kg) was 0. Moreover, the “toxicity (in words)” value in data set [5] (oral, mouse) was “do not determine any toxic effect”.
As to `Cc1ccc(/C=C/C(=O)Nc2nn[nH]n2)s1` [VAL 47-005, N-1H-tetrazol-5-yl-[3-[5-methyl-(2-thienyl)]] acrylamide trans isomer], in data set [1] (setting [6]), the inhibition in vivo at 1 mg/kg is 20.3%. The inhibition in vivo at 3 mg/kg in data set [1] (immediately before challenge) was 43.4%. Further, the inhibition in vivo at 10 mg/kg in data set [1] (immediately before challenge) is 89.4%; in data set [2] (setting [8]), 43.8%. The ED50 came to 2.99 mg/kg in data set [1] (immediately before challenge) and 12.4 mg/kg in data set [2] (setting [15]). Also, the inhibition in vivo at 30 mg/kg in data set [2] (setting [9]) is 75.3%; in data set [3] (setting [10]), 75.5%; in data set [3] (setting [11]), 61.4%; in data set [3] (setting [12]) it was 37.5%; in data set [3] (setting [13]), 0%; in data set [3] (setting [14]), 11.4%. The “ED50 OS/ED50 iv” value in data set [2] is recorded as 4.13. In data set [2] (oral, 3 mg/kg, 5 minutes before challenge), the “inhibition (%)” value is 9.6%. Besides, in data set [4], the mortality amounted to 0%. In data set [5] (mouse, in vivo, po, 1000 mg/kg), the “No. (dead)” value amounted to 0.
As to `O=C(/C=C/c1ccccn1)Nc1nn[nH]n1` [VAL 47-055, N-1H-tetrazol-5-yl-[3-(2-pyridyl)]-acrylamide trans isomer], the inhibition in vivo at 0.3 mg/kg in data set [1] (setting [21]) is 5.6%. Besides, the inhibition in vivo at 1 mg/kg in data set [1] (setting [6]) worked out at 47.5%; in data set [2] (setting [15]), 22.5%. The results for the inhibition in vivo at 3 mg/kg in data set [1] (immediately before challenge) and in data set [2] (setting [7]) were 85.9% and 28.3%, respectively. Moreover, the ED50 in data set [1] (immediately before challenge) came out at 1.54 mg/kg; in data set [2] (setting [15]), 7.94 mg/kg. Besides, the inhibition in vivo at 10 mg/kg in data set [2] (setting [8]) was 52.9%; in data set [3] (setting [16]) it was 45.6%; in data set [3] (setting [17]), 0.5%; in data set [3] (setting [18]), 0%; in data set [3] (setting [19]), 4.7%; in data set [3] (setting [20]) it was 0%. In data set [2] (setting [9]), the inhibition in vivo at 30 mg/kg was determined as 81%. Besides, the “ED50 OS/ED50 iv” value in data set [2] is given as 5.15. For the same molecule, the mortality in data set [4] amounted to 0%. The “No. (dead)” value in data set [5] (mouse, in vivo, po, 1000 mg/kg) worked out at 0.
For the molecule `O=C(/C=C/c1c[nH]c2ccccc12)Nc1nn[nH]n1` [VAL 47-022, N-1H-tetrazol-5-yl-[3-(3-indolyl)]-acrylamide trans isomer], in data set [1] (setting [21]), the inhibition in vivo at 0.3 mg/kg came to 3.9%. Further, the inhibition in vivo at 1 mg/kg in data set [1] (setting [6]) was determined as 43.4%. In addition, the inhibition in vivo at 3 mg/kg in data set [1] (immediately before challenge) is 97.1%; in data set [2] (setting [7]), 17.8%. Besides, the ED50 in data set [1] (immediately before challenge) amounted to 1.01 mg/kg. Also, in data set [2] (setting [8]), the inhibition in vivo at 10 mg/kg turned out to be 46.6%. Further, the inhibition in vivo at 30 mg/kg in data set [2] (setting [9]) was 40.8%; in data set [3] (setting [10]), 62.2%; in data set [3] (setting [11]) it was 52.7%; in data set [3] (setting [12]), 33.3%; in data set [3] (setting [13]) it was 19.4%; in data set [3] (setting [14]), 8.9%. Besides, the mortality in data set [4] came to 0%. In data set [5] (oral, 1000 mg/kg/os, 8 treated), the “No. (dead)” value is on record as 0.
Turning to `O=C(/C=C/c1ccsc1)Nc1nn[nH]n1` [VAL 47-034, N-1H-tetrazol-5-yl-[3-(3-thienyl)]-acrylamide trans isomer], the inhibition in vivo at 1 mg/kg in data set [1] (setting [6]) came to 1.3%. In addition, the inhibition in vivo at 3 mg/kg in data set [1] (immediately before challenge) was 48.6%; in data set [2] (setting [7]) it was 0%. Moreover, the inhibition in vivo at 10 mg/kg in data set [1] (immediately before challenge) came to 63.5%; in data set [2] (setting [8]), 0%. Further, in data set [1] (immediately before challenge), the ED50 was determined as 4.74 mg/kg. For the same molecule, the inhibition in vivo at 30 mg/kg in data set [2] (setting [9]) turned out to be 53.4%; in data set [3] (setting [10]), 64.5%; in data set [3] (setting [11]), 36%; in data set [3] (setting [12]), 41.9%; in data set [3] (setting [13]) it was 6.9%; in data set [3] (setting [14]) it was 0%. For the same molecule, in data set [4], the mortality was 25%. Moreover, in data set [5] (oral, 1000 mg/kg/os, 8 treated), the “No. (dead)” value is 2.
With `O=C(/C=C/c1ccnc2ccccc12)Nc1nn[nH]n1` [VAL 47-067, N-1H-TETRAZOL-5-YL-[3-(4-QUINOLYL)] […] ISOMER], the ED50 in data set [1] amounted to 0.35 mg/kg. Further, the inhibition in vivo at 0.1 mg/kg in data set [1] (read-out: inhibition (%)) came out at 1.1%. Further, the inhibition in vivo at 0.3 mg/kg in data set [1] (read-out: inhibition (%)) amounted to 53.6%. Moreover, the inhibition in vivo at 1 mg/kg in data set [1] (read-out: inhibition (%)) is 81.8%. In data set [2] (Rattus norvegicus, po), the inhibition in vivo at 3 mg/kg came to 8.3%. Also, the inhibition in vivo at 10 mg/kg in data set [2] (Rattus norvegicus, po) amounted to 0%. Moreover, the inhibition in vivo at 30 mg/kg in data set [2] (Rattus norvegicus, po) was determined as 16.7%; in data set [3] (po, 5 min), 50.5%; in data set [3] (po, 0.25 h) it was 29.3%; in data set [3] (po, 0.5 h) it was 13.3%; in data set [3] (po, 1 h), 0%; in data set [3] (po, 2 h), 0%. For the same molecule, in data set [4], the mortality was 12.5%. The “No. (dead)” value in data set [5] (oral, 1000 mg/kg/os, 8 treated) was found to be 1.
